We go through one sequence from paper PMC1082716, “Blockade of chemokine-induced signalling inhibits CCR5-dependent HIV infection in vitro without blocking gp120/CCR5 interaction” (Retrovirology, 2005).

One test relates to HIV strain MN. As to the kind of experiment: HIV (MN) infection of THP-1 cells, p24gag immunofluorescence. To be noted: Peptide 3 100 μM. The class given is cell-based, HIV-1. As for the experimental part: However, it was possible to assess HIV infectivity of THP-1 cells using high sensitivity immunofluorescent detection of p24^gag. THP-1 cells were differentiated with hydrocortisone and PMA, then treated with TNFα, resulting in adherent monolayers on glass chamber slides. The THP-1 cells were then treated with either Peptide 3 (100 μM), MIP1α (100 ng/ml) or SDF1α (100 ng/ml) as for the Jurkat cells. THP-1 cells were infected with HIV strain MN at a concentration previously validated to produce easily detectable infection and grown for 72 h prior to fixation and staining for p24^gag. In contrast to the findings with HIV strain IIIb infection of Jurkat T cells, Peptide 3 inhibited infection of THP-1 cells by more than 80% (Fig 3c), very similar to the effect of MIP1α.
THP-1 cells were differentiated prior to infection with hydrocortisone and PMA in 8-well chamber slides. Sixteen hours prior to infection, TNFα was added (100 ng/ml). Twelve hours later, the medium was aspirated and replaced with fresh medium containing the test peptides or chemokines as appropriate. After a further four hours, virus from the frozen stocks was adeed to the cells, which were the processed for immunofluoresence between 28 h and 72 h after infection.
Jurkat cells following HIV infection were attached to 8-well chamber slides (Becton-Dickinson) by spinning the slides using a plate rotor in a Labofuge centrifuge (Heraeus) at 3,000 × g for 5 minutes. Attached Jurkat cells or THP-1 cells were then fixed by dipping the slides into ice-cold 70% ethanol for 90 seconds. Non-specific binding was blocked by incubation with 3% fatty acid-free BSA in TBS for 1 hour at room temprature. Cells were incubated with the mouse monoclonal anti-HIV-1 p24^gag antibody EH12E1 (ref 38;AIDS Reagent Program, NIBSC) at 10 μg/ml in 3% BSA in TBS at room temperature overnight. Unbound antibody was removed with 3 × 3 min washes in PBS, and bound antibody was then fixed to the slide by incubation with 3.8% phosphate buffered formalin pH7.2 for 10 mins at room temperature, followed by 3 further 3 min washes in PBS. Bound antibody was visualised using donkey anti-mouse IgG FITC conjugate (715-095-150; Jackson Immunoresearch) at 30 μg/ml in 3% BSA/TBS + 1 ng/ml Hoescht 33342 for 6 hours at room temperature. Twelve fields of view (100× magnification) were captured from each well of the chamber slide using an Olympus Provis AX electronic microscope connected to a Power Macintosh 8500, running OpenLab image analysis software (Improvision), under both FITC illumination conditions (NIBA filter block; λex = 470–490 nm, dichroic mirror = 505 nm, λem = 515–550 nm) and UV illumination conditions (Chroma 31000; λex = 340–380 nm, dichroic mirror = 400 nm, λem = 435–485 nm). Images were acquired with a Hamamatsu C4742-05 monochrome digital camera with 10-bit depth in a 1280-1024 pixel field connected to a DIG Snapper frame grabber. The exposure time, amplifier gain and offset values were controlled by the OpenLab software and were held constant throughout the experiment. A background (an image captured without a slide under the objective) was digitally subtracted from every image. A threshold was then applied to each image which was the lowest threhold that detected <1% of the pixels of an image of uninfected cells stained under identical conditions. The number of objects exceeding this threshold in each field of view were counted. […]

In a further test the test system is HIV (IIIb). Description: HIV (IIIb) infection of Jurkat T-cells, p24gag immunofluorescence. To be noted: Peptide 3 100 μM, approximately 48 h after infection. The class given is cell-based. As for the experimental part:
HIV infection of Jurkat T-cells was also monitored by high sensitivity quantitative immunofluoresence detection of viral p24^gag expression. Jurkat cells were infected with HIV in the presence or absence of Peptide 3 (100 μM) or SDF1α (100 ng/ml) as described above. Approximately 48 h after infection, the cells were attached to glass slides using a cytospin and then fixed by immersion in ice-cold 70% ethanol for 90 seconds. Expression of p24^gag was determined using quantitative immunofluoresence as previously described, except that the primary antibody was post-fixed to the section using paraformaldehyde to increase the sensitivity of the technique (see Methods). Viral infectivity was expressed as the number of cells stained for p24^gag expressed as a proportion of the total number of cells (detected using Hoechst 33342 nuclear dye). […]
Jurkat cells following HIV infection were attached to 8-well chamber slides (Becton-Dickinson) by spinning the slides using a plate rotor in a Labofuge centrifuge (Heraeus) at 3,000 × g for 5 minutes. […] A threshold was then applied to each image which was the lowest threhold that detected <1% of the pixels of an image of uninfected cells stained under identical conditions. The number of objects exceeding this threshold in each field of view were counted. […]

Test [1] deals with CXCR4-dependent infection of Jurkat T cells. As to the kind of experiment: CXCR4-dependent HIV infection of Jurkat T cells (assay not specified). It counts as cell-based, HIV-1. As for the experimental part: HIV infection of Jurkat T-cells using the laboratory-adapted T-tropic isolate IIIb was monitored using two different assays. Firstly, Jurkat T-cells in 96-well plates were pre-treated with either Peptide 3, vehicle (as a negative control) or SDF1α (as a positive control) for 4 hours, then exposed to HIV virus (10^6 TCID50) and pulsed at 2–3 day intervals with Peptide 3, SDF1α or medium alone as appropriate. After two weeks in culture, the extent of viral infection was assayed by measuring the reverse transcriptase activity in the supernatant, as a measure of viral replication in the culture In six separate experiments, Peptide 3 (100 μM) had no effect on virus replication following HIV exposure (Fig 3a), while SDF1α inhibited reverse transcriptase activity by an average of 75%. […]
HIV infection of Jurkat T-cells was also monitored by high sensitivity quantitative immunofluoresence detection of viral p24^gag expression. […] Expression of p24^gag was determined using quantitative immunofluoresence as previously described, except that the primary antibody was post-fixed to the section using paraformaldehyde to increase the sensitivity of the technique (see Methods). Viral infectivity was expressed as the number of cells stained for p24^gag expressed as a proportion of the total number of cells (detected using Hoechst 33342 nuclear dye). […]

In test [2] the test system is chemokine receptor internalisation. To be noted: ref [27]; cited from earlier work. The text has this: Since BSCIs, such as Peptide 3, ...

“Also recorded” adds a separate entry of the source.

On to EICADPKQKWVQ [Peptide 3], for which the “Effect on HIV infection of THP-1 cells (in words)” value in the test with HIV strain MN (HIV strain MN, MIP1α 100 ng/ml, SDF1α 100 ng/ml, 72 h, p24gag immunofluorescence) is reported as “powerfully inhibited; also recorded: blocked”. Further, the “Inhibition of infection of THP-1 cells (p24gag)” value in the test on HIV strain MN (HIV strain MN, differentiated THP-1 (hydrocortisone, PMA, TNFα), grown for 72 h prior to fixation, 12 fields of view) was “more than 80%”. Also, in the test on HIV strain MN (assayed by immunofluoresence staining, HIV MN, 72 h, p24gag), the “Inhibition of CCR5 mediated HIV infection of THP-1 cells” value is on record as 83 ± 7%. Further, the “Effect on viral infectivity (p24gag, in words)” value in the test with HIV (IIIb) is on record as “no effect”. In test [1], the “Effect on CXCR4-dependent HIV infection of Jurkat T cells” value is “did not affect; also recorded: no effect”. Moreover, the “Effect on chemokine receptor internalisation induced by ligand binding” value in test [2] is recorded as “do not block”.
